Experiments:
Format in all cases: in vivo, SD rats
IL-10 = test: Serum IL-10 by ELISA, TNBS model rats; settings: 100 mg/kg once per day, 21 days
Experimental: Grouping: experiment was carried out by using two ways of intracolonic and intragastric administrations. […] There were 10 rats each group. Method for establishing rat model: referring to Morris method, TNBS was used to induce the SD rat Crohn's disease model (abbreviated as “TNBS model”). 24 hours before modeling, the SD rats were fasted but water was given. […] The rats of blank control group were normally fed with free access to water and the same volume of normal saline was given in the same administration routes by referring to the dosage regime of aforementioned treatment groups. The rats of model group were administrated with the same volume of normal saline in the same administration routes. […] (2) Serum indices: after final administration, the testing rats were fasted but given water. 24 hours later, blood was gained from abdominal aorta. Serum IFN-γ, IL-1, IL-4, IL-10 and Gln in intestinal mucosa were determined by enzyme-linked immunosorbent assay (ELISA) in rats.

[1] = test system: OXZ-induced SD rat Crohn's disease model; test: Colon gross damage and histopathological score, OXZ model rats; settings: 100 mg/kg
Experimental: Grouping: the experiment was carried out by using two ways of intracolonic and intragastric administration. […] There were 10 rats each group. Method for establishing rat model: referring to the Heller method, OXZ was used to induce the SD rat Crohn's disease model (abbreviated as “OXZ model”). Neck and back skin of rats were shaved (2 cm×2 cm). Ethanol was used to prepare 5% (w/v) OXZ solution, and 0.3 ml resultant OXZ solution was dripped on the skin of rats. […] The sensitized rats were adaptively raised for 5 days, […] anesthetized by intraperitoneal injection of pentobarbital sodium. […] After completion, the rats were inverted by lifting tails for 60s to make the solution totally absorbed. […] If the rats manifested dark hair color, body weight loss, poor appetite, lassitude, watery stool or diarrhea, the model establishment was success. Administration method: after successful model establishment by OXZ, the drug was given to rats. The TCM preparation k saline solutions at corresponding dose were administered to the groups of preparation k of all doses and the […] saline solution, a positive drug, administrated to the positive control group. The rats of blank control group were normally fed, given with water and the same volume of normal saline was given in the same administration routes by referring to the dosage regime of aforesaid treatment groups. The rats of model group were administrated with the same volume of normal saline in the same administration routes. The dose of each group was as follows: […] group at 100 mg/kg rat weight, the TCM preparation k high-dose group at 2.023 g raw medicine/kg rat weight, the middle-dose group at 1.012 g raw medicine/kg rat weight and the low-dose group at 0.506 g raw medicine/kg rat weight.

[2] = test system: OXZ-induced SD rat Crohn's disease model; test: DAI score in oxazolone-caused Crohn's disease rat model; set-up: key: DAI = (weight loss % + stool character + hematochezia scores)/3; settings: 100 mg/kg
Experimental: Grouping: the experiment was carried out by using two ways of intracolonic and intragastric administration. […] There were 10 rats each group. Method for establishing rat model: referring to the Heller method, OXZ was used to induce the SD rat Crohn's disease model (abbreviated as “OXZ model”). Neck and back skin of rats were shaved (2 cm×2 cm). Ethanol was used to prepare 5% (w/v) OXZ solution, and 0.3 ml resultant OXZ solution was dripped on the skin of rats. […] The sensitized rats were adaptively raised for 5 days, […] anesthetized by intraperitoneal injection of pentobarbital sodium. […] After completion, the rats were inverted by lifting tails for 60s to make the solution totally absorbed. […] If the rats manifested dark hair color, body weight loss, poor appetite, lassitude, watery stool or diarrhea, the model establishment was success. Administration method: after successful model establishment by OXZ, the drug was given to rats. The TCM preparation k saline solutions at corresponding dose were administered to the groups of preparation k of all doses and the […] saline solution, a positive drug, administrated to the positive control group. The rats of blank control group were normally fed, given with water and the same volume of normal saline was given in the same administration routes by referring to the dosage regime of aforesaid treatment groups. The rats of model group were administrated with the same volume of normal saline in the same administration routes. The dose of each group was as follows: […] group at 100 mg/kg rat weight, the TCM preparation k high-dose group at 2.023 g raw medicine/kg rat weight, the middle-dose group at 1.012 g raw medicine/kg rat weight and the low-dose group at 0.506 g raw medicine/kg rat weight. […] (1) General Indices: weight change and stool (e.g. stool occult blood, bloody stool and diarrhea) were observed every day to calculate DAI score. DAI score=(weight loss percentage+defecate character fraction+hematochezia fraction)/3 [table]

[3] = Table 18: OXZ-model rats, route not printed in title

Q: What does the source list for `Nc1ccc(O)c(C(=O)O)c1` [mesalamine, Mesalamine]?
A: IL-10 serum content (Mean ± SD) (IL-10; intracolonic): 88.06 ± 10.47 pg/mL; IL-10 serum content (Mean ± SD) (IL-10; intragastric): 88.56 ± 16.77 pg/mL; Gross damage score (Mean ± SD) ([1]; OXZ model rats, intragastric): 1.700 ± 1.494; Gross damage score (Mean ± SD) [1, 3]: 1.800 ± 1.229; Histopathological score (Mean ± SD) [1, 3]: 3.17 ± 1.33; DAI score (Mean ± SD) ([2]; Table 14: OXZ model rats, intracolonic, 1st day): 0.267 ± 0.263; DAI score (Mean ± SD) ([2]; Table 14: OXZ model rats, intracolonic, 2nd day): 0.400 ± 0.378; DAI score (Mean ± SD) ([2]; Table 14: OXZ model rats, intracolonic, 3rd day): 0.300 ± 0.331; DAI score (Mean ± SD) ([2]; Table 14: OXZ model rats, intracolonic, 4th day): 0.333 ± 0.385; DAI score (Mean ± SD) ([2]; Table 14: OXZ model rats, intracolonic, 5th day): 0.800 ± 0.422; DAI score (Mean ± SD) ([2]; Table 14: OXZ model rats, intracolonic, 7th day): 1.700 ± 0.637; DAI score (Mean ± SD) ([2]; Table 14: OXZ model rats, intracolonic, 8th day): 1.500 ± 0.593; DAI score (Mean ± SD) ([2]; Table 14: OXZ model rats, intracolonic, 9th day): 0.733 ± 0.439; DAI score (Mean ± SD) ([2]; Table 15, as titled: intracolonic, TNBS model rats, 1st day): 0.600 ± 0.141; DAI score (Mean ± SD) ([2]; Table 15, as titled: intracolonic, TNBS model rats, 4th day): 0.267 ± 0.211; DAI score (Mean ± SD) ([2]; Table 15, as titled: intracolonic, TNBS model rats, 5th day): 1.000 ± 0.222; DAI score (Mean ± SD) ([2]; Table 15, as titled: intracolonic, TNBS model rats, 8th day): 1.967 ± 0.576; DAI score (Mean ± SD) ([2]; Table 15, as titled: intracolonic, TNBS model rats, 9th day): 1.633 ± 0.429; DAI score (Mean ± SD) ([2]; Table 15, as titled: intracolonic, TNBS model rats, 10th day): 1.267 ± 0.625; DAI score (Mean ± SD) ([2]; Table 15, as titled: intracolonic, TNBS model rats, 11th day): 1.067 ± 0.798
